These results are taken from US10253002B2, “Compounds and methods of treating infections” (Neoculi Pty Ltd., priority 2013, dated 2019).

For one data set, the system named is S. pneumoniae isolates. The data set is described as follows: MBC, Example 5. Format: cell-based, Streptococcus pneumoniae. Here is the method: [Micro-broth dilutions and 96 well trays are prepared by the following method: 90 μL of 4% LHB:CAMHB is aliquotted into all wells using a multichannel pipette. 90 μL of working antimicrobial stocks were no serial diluted down the tray by a 1:2 dilution. Negative broth controls and dilution control were taken into account when planning the set up of a 96 well tray.] 10 μL of bacterial suspension was then added to the appropriate wells in the 96 well tray. Appropriate positive (no antimicrobial), negative (no antimicrobial or bacteria) and negative dilution (a serial dilution control of antimicrobial and broth) controls were included in each assay. […] The MBC was determined by a 99.95% inhibition of S. pneumoniae, taking into account the dilution factor. MICs and MBCs were determined in quadruplicate and the mode was taken as the representative value. The MIC50, MIC90 and MIC range and MBC50, MBC90 and MBC range were determined according to CLSI standards. The MIC50 and MIC90, or MBC50 and MBC90, are defined by the lowest concentrations which, when all the MICs and MBCs of the isolates are arranged from lowest to highest, inhibited the 50th and 90th percentile of the total amount of isolates, respectively.

The test system of another data set is Salmonella arizonae. Kind of data set: Broth microdilution MIC, Example 7. The class given is cell-based. On the procedure:
Minimum inhibitory concentrations (μg/ml) were determined using the broth microdilution method recommended by the Clinical and Laboratory Standards Institute (CLSI). […] Bacterial growth (turbidity) in the wells with antimicrobial was compared with the amount of growth (turbidity) in the growth-control well (containing no antimicrobial). All isolates were tested in duplicate, if there was a difference of greater than one two-fold dilution in the results, the test was repeated a third time. The purity of the isolates was closely monitored during testing by subculturing the prepared bacterial inoculum onto SBA (sheep blood agar). The MICs of the control strains for the antimicrobial ampicillin were determined for each testing run as an internal quality control. The MIC50, […] and MIC range (minimum and maximum) were calculated for each of the bacterial groups.

The subject of data set [1] is protein synthesis in S. aureus ATCC 29213. The data set is described as follows: Macromolecular synthesis assay: protein synthesis ([3H] leucine). Format: cell-based, Staphylococcus aureus. Conditions: at the MIC. Here is the method: Cells were grown at 35° C. overnight on Trypticase Soy agar. A colony from the plate was used to inoculate 10 ml of Mueller Hinton broth II (MHBII), and the culture was grown to early exponential growth phase (OD600==0.2 to 0.3) while incubating in a shaker at 35° C. and 200 rpm.
When cells reached early exponential phase, 100 μL of culture was added to triplicate wells containing various concentrations of test compound or control antibiotics (5 μL) at 20× the final concentration in 100% DMSO. A 5% DMSO treated culture served as the “no drug” control for all experiments. Cells were added in MHBII at 105% to account for the volume of drug added to each reaction or in M9 minimal medium for protein synthesis reactions. Following 15 min incubation at room temperature, either [^3H] thymidine (DNA synthesis), [^3H] uridine (RNA synthesis) or [^3H] leucine (protein synthesis) was added at 0.5-1.0 μCi per reaction, depending on the experiment. Reactions were allowed to proceed at room temperature for 15-30 min and then stopped by adding 12 μL of cold 5% trichloroacetic acid (TCA) or 5% TCA/2% casamino acids (protein synthesis only). […] After washing three times with 5 ml of cold 5% TCA, the filters were rinsed two times with 5 mL 100% ethanol, allowed to dry, and then counted using a Beckman LS3801 liquid scintillation counter.

Data set [2] is described as follows: Precipitation of NCL812 in assay media, Examples 2 and 3. Format: physicochemical.
Data set [3] has as its system methicillin-susceptible S. aureus ATCC 49775. The data set is described as follows: Time-kill assays (microdilution and 10 ml macrodilution), Example 4. Format: cell-based, Staphylococcus aureus. On the procedure:
Bactericidal activity in macrodilution assays was identified as a 3 log10 decrease from the initial inoculum size. Bacteria were cultured overnight at 37° C. on SBA. Colonies were suspended in broth and the turbidity was adjusted to a 0.5 McFarland standard to obtain a bacterial suspension of […]. Bacterial suspensions were incubated at 37° C. with shaking. Aliquots were removed at 0, 1, 2, 4, 8, 12, and 24 h after antimicrobial addition, diluted, plated onto SBA and incubated for 48 h at 37° C. for viable count determination. Turbidimetric growth curves for S. aureus were obtained for Microtiter plate assays by monitoring optical density changes using a Bio-Rad Benchmark Plus microplate spectrophotometer at 600 nm. Optical densities were measured at 0, 1, 2, 4, 8, 12, and 24 h after antimicrobial addition.

The subject of another data set is S. pneumoniae strain D39. Kind of data set: MBC time kill studies (relative MBC at time points). The class given is cell-based, Streptococcus pneumoniae. As to conditions: within 5 h. An excerpt:
MBC kill kinetics assays involved the preparation of three 96 well microtitre trays.

The nature of data set [4]: Visual analysis of solubility in diluents and media, Example 5. Format: physicochemical.

Converted amounts (≈) assume the structure as drawn. Read-outs that look alike come from different tables or passages of the source. A value given as a limit tells only on which side of the number the result lay.

As to `CC1(C)S[C@@H]2[C@H](NC(=O)[C@H](N)c3ccccc3)C(=O)N2[C@H]1C(=O)O` [Ampicillin], the MBC in the data set with S. pneumoniae isolates (Streptococcus pneumoniae, isolate P21, Table 22, CAMHB diluent for NCL062, read-out: MBC) is 0.045 µg/mL (≈ 0.129 µM); in the data set on S. pneumoniae isolates (Streptococcus pneumoniae, isolate WCH57, Table 22, CAMHB diluent for NCL062, read-out: MBC), 0.09 µg/mL (≈ 0.258 µM); in the data set with S. pneumoniae isolates (Streptococcus pneumoniae, isolate WCH158, Table 22, CAMHB diluent for NCL062, read-out: MBC), 0.022 µg/mL (≈ 0.063 µM); in the data set with S. pneumoniae isolates (Streptococcus pneumoniae, pneumococcal isolate A66.1, read-out: MBC), 0.045 µg/mL (≈ 0.129 µM); in the data set on S. pneumoniae isolates (Streptococcus pneumoniae, pneumococcal isolate D39, read-out: MBC), 0.023 µg/mL (≈ 0.0658 µM); in the data set with S. pneumoniae isolates (Streptococcus pneumoniae, pneumococcal isolate EF3030, read-out: MBC), 0.023 µg/mL (≈ 0.0658 µM). In addition, the MBC in the data set on S. pneumoniae isolates (Streptococcus pneumoniae, pneumococcal isolate L82016, read-out: MBC) is 0.023 µg/mL (≈ 0.0658 µM); in the data set on S. pneumoniae isolates (Streptococcus pneumoniae, pneumococcal isolate P9, read-out: MBC), 0.023 µg/mL (≈ 0.0658 µM); in the data set on S. pneumoniae isolates (Streptococcus pneumoniae, pneumococcal isolate P21, read-out: MBC), 0.023 µg/mL (≈ 0.0658 µM); with S. pneumoniae isolates (Streptococcus pneumoniae, pneumococcal isolate TIGR4, read-out: MBC), 0.023 µg/mL (≈ 0.0658 µM); in the data set on S. pneumoniae isolates (Streptococcus pneumoniae, pneumococcal isolate WCH43, read-out: MBC), 0.023 µg/mL (≈ 0.0658 µM); with S. pneumoniae isolates (Streptococcus pneumoniae, pneumococcal isolate WCH46, read-out: MBC), 0.045 µg/mL (≈ 0.129 µM). Also, the MBC is 0.023 µg/mL (≈ 0.0658 µM) in the data set on S. pneumoniae isolates (Streptococcus pneumoniae, pneumococcal isolate WCH57, read-out: MBC); 0.023 µg/mL (≈ 0.0658 µM) in the data set on S. pneumoniae isolates (Streptococcus pneumoniae, pneumococcal isolate WCH77, read-out: MBC); 0.023 µg/mL (≈ 0.0658 µM) in the data set on S. pneumoniae isolates (Streptococcus pneumoniae, pneumococcal isolate WCH86, read-out: MBC); 0.023 µg/mL (≈ 0.0658 µM) with S. pneumoniae isolates (Streptococcus pneumoniae, pneumococcal isolate WCH89, read-out: MBC); 0.09 µg/mL (≈ 0.258 µM) in the data set with S. pneumoniae isolates (Streptococcus pneumoniae, pneumococcal isolate WCH92, read-out: MBC); 0.023 µg/mL (≈ 0.0658 µM) in the data set with S. pneumoniae isolates (Streptococcus pneumoniae, pneumococcal isolate WCH137, read-out: MBC). For the same compound, the MBC with S. pneumoniae isolates (Streptococcus pneumoniae, pneumococcal isolate WCH158, read-out: MBC) is 0.023 µg/mL (≈ 0.0658 µM); with S. pneumoniae isolates (Streptococcus pneumoniae, pneumococcal isolate WCH184, read-out: MBC) it was 0.045 µg/mL (≈ 0.129 µM); in the data set on S. pneumoniae isolates (Streptococcus pneumoniae, pneumococcal isolate WCH211, read-out: MBC), 0.023 µg/mL (≈ 0.0658 µM); with S. pneumoniae isolates (Streptococcus pneumoniae, pneumococcal isolate WU2, read-out: MBC), 0.023 µg/mL (≈ 0.0658 µM); in the data set with S. pneumoniae isolates (Streptococcus pneumoniae, all S. pneumoniae isolates, read-out: MBC50) it was 0.023 µg/mL (≈ 0.0658 µM); with S. pneumoniae isolates (Streptococcus pneumoniae, all S. pneumoniae isolates, read-out: MBC90), 0.023 µg/mL (≈ 0.0658 µM). Moreover, the MBC entry with S. pneumoniae isolates (pneumococcal isolate WCH16) was “Autolysis”. In the data set with S. pneumoniae isolates (all S. pneumoniae isolates), the “MBC Range” value lay in the range of 0.011 to 0.09 µg/mL. The minimal inhibitory concentration (MIC) with Salmonella arizonae (S. arizonae, 2nd) came out at 1 µg/mL (≈ 2.86 µM); in the data set on Salmonella arizonae (Salmonella enterica, S. arizonae, 1st, read-out: MIC), 1 µg/mL (≈ 2.86 µM).
In the case of `N=C(N/N=C/c1ccc(Cl)cc1)N/N=C/c1ccc(Cl)cc1` [NCL812, 1,3-bis[(E)-(4-chlorophenyl)methyleneamino]guanidine], the “inhibition of protein synthesis” value in data set [1] is recorded as “up to 97%”. Moreover, the “Precipitation of NCL812 observed at” value in data set [2] (MIC plates prepared identically without inoculum, MHB II) was not below 8 µg/mL. The compound also came in with a precipitation observed at in data set [2] (Mueller Hinton broth II, DNA and RNA synthesis assays) of 4 to 8 fold the MIC. Further, the “bacterial growth, turbidimetric growth curve” value in data set [3] (ATCC 49775, 1× and 4× the MIC, microdilution, up to 24 h) is reported as “no visible bacterial growth”. Besides, the “remained bactericidal until (then regrowth)” value in data set [3] (ATCC 49775, 10 mL macrodilution, 1× and 4× the MIC) fell in the range of 8 to 12 h. The “bacterial regrowth observed at, after antimicrobial addition” value in data set [3] (ATCC 49775 time-kill) is reported as 12 h. Further, in the data set with S. pneumoniae strain D39, the “decrease in MBC” value was approximately 3 fold. Besides, the “Visual analysis of solubility” value in data set [4] (Diluent CAMHB) is “Turbid”; in data set [4] (Diluent DMSO), “Transparent”; in data set [4] (Diluent PBS), “Precipitate”; in data set [4] (Media 4% LHB:CAMHB), “Turbid”; in data set [4] (Media 10% horse serum-supplemented broth), “Precipitate”. The minimal inhibitory concentration (MIC) in the data set on Salmonella arizonae (S. arizonae, 1st) was more than 128 µg/mL; against Salmonella arizonae (S. arizonae, 2nd), more than 128 µg/mL; in the data set on Salmonella arizonae (Salmonella enterica, Salmonella arizonae, read-out: MIC), more than 128 µg/mL.
